Measured values from article PMC10874388, “Cyclic peptides discriminate BCL-2 and its clinical mutants from BCL-XL by engaging a single-residue discrepancy” (Nature Communications, 2024).
Values joined by “and” are separate entries in the source; they are usually repeats but may differ in a detail not shown here. Equal entries are not always repeated.

Experiments:
Type in all cases: cell-based
[1] = tested on: A549 cells overexpressing BCL-2 WT; assay: Cell viability assay, A549 stably overexpressing BCL-2 WT; conditions: A549 BCL2-WT, single wells
Description: (§1) Cell viability was measured using CellTiter-Glo® 2.0 Reagent (Promega, G9242). […] After different inhibitors were added into serum-free medium and cultured for 4 h (RS4:11 for 6 h), FBS were supplemented to 10% and then incubated totally for 24 h or 48 h. Finally, the IC50 values were calculated based on measurements using a microplate reader (Thermo, Varioskan LUX). Statistical analysis was performed using software GraphPad Prism 7.0.
(§2) Lentivirus packaging vectors pMDLg/pRRE, pRSV-Rev, and pVSV-G were obtained from Prof. Han Jiahuai’s lab (Xiamen University). Lentiviruses were produced using 3rd-generation lentivirus packaging plasmids transiently transfected into HEK293T cells with the constructs of interest using 0.25 M CaCl2. Media was changed after 16 h, and supernatants containing infectious virus particles were harvested 24 h later. A second viral harvest was made following a further 24 h incubation with fresh media. Virus containing supernatant was filtered through a […], and stored at 4 °C or −80 °C until being used. Typically, A549 cells were seeded into 10 cm cell culture dishes at 4 ~ 8 × 10^5 cells/cm^2. An equivalent volume of virus containing culture medium was added along with polybrene (Sigma) to a final concentration of 10 µg/mL. Cells were incubated at 37 °C for 20 h, before they were washed and resuspended in fresh culture media. The expression level of BCL-2 was measured by qPCR and western blot methods.

Jurkat cells = assay: Cell viability assay (CellTiter-Glo), Jurkat
Description: (§3) The cell lines Jurkat (TIB-152), El4 (TIB-39), Daudi (ccl-213), RS4:11 (crl-1873), A549 (ccl-185), HepG2 (hb-8065) and PANC-1 (crl-1469) were purchased from ATCC (American Type Culture Collection), and MGC-803 (C6582) was purchased from Beyotime (https://www.beyotime.com/product/C6582.htm). […] Daudi and RS4:11 cells were cultured in RPMI-1640 medium (HyClone, SH30809.01) and 10% FBS (Gibco, 10099-141), whereas HepG2, MGC-803 and PANC-1 cells were cultured in MDEM (HyClone, SH30243.01). Cells were maintained at 37 °C under a humidified, 5% (v/v) CO2-containing atmosphere.
as §1

[2] = tested on: A549 cells overexpressing BCL-2 G101V; assay: Cell viability assay, A549 stably overexpressing BCL-2 G101V; conditions: A549 BCL2/G101V, single wells
Description: as §1, §2

Daudi cells = assay: Cell viability assay (CellTiter-Glo), Daudi; conditions: for raw viability signal, replicates: Daudi
How it was run: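 Compounds added in serum-free medium for 4 h (RS4:11: 6 h), then FBS brought to 10% and incubation continued to 24 h or 48 h total at 37 °C, 5% CO2. Viability by CellTiter-Glo 2.0 luminescence; IC50 calculated.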

A549 cells (control) = assay: Cell viability assay (CellTiter-Glo), normal A549 (control); conditions: for raw luminescence reading / control inhibiton rate: A549 control, single wells
Description: as §3, §1

IC50 (Daudi cells; 48 h treatment, CellTiter-Glo): 10 ± 0.4 µM
Structure (SMILES): O=C(c1cc(-c2cc3c(cc2C(=O)N2Cc4ccccc4C[C@H]2CN2CCOCC2)OCO3)n2c1CCCC2)N(c1ccccc1)c1ccc(O)cc1 [S55746]
BCL2-WT inhibition rate ([1]; 3.125 uM): 2.61% and 4.22% and -4.33% and 4% and -2.32%
raw luminescence reading ([1]; 3.125 uM): 861200 and 847000 and 922600 and 850300 and 904800 and 882000
BCL2-WT inhibition rate ([1]; 6.25 uM): 12% and 11% and 10% and 8% and 15%
raw luminescence reading ([1]; 6.25 uM): 774200 and 789000 and 799200 and 813400 and 753900 and 827800
BCL2-WT inhibition rate ([1]; 12.5 uM): 25% and 23% and 22% and 26%
raw luminescence reading ([1]; 12.5 uM): 665800 and 680900 and 679300 and 687300 and 653500 and 700500
BCL2-WT inhibition rate ([1]; 25 uM): 32% and 31%
raw luminescence reading ([1]; 25 uM): 602600 and 612300 and 599000 and 609600 and 600600 and 625900
BCL2-WT inhibition rate ([1]; 50 uM): 45%
raw luminescence reading ([1]; 50 uM): 489600 and 486500 and 483800 and 490200 and 490400 and 500400
BCL2-WT inhibition rate ([1]; 100 uM): 51% and 50%
raw luminescence reading ([1]; 100 uM): 433600 and 432600 and 430000 and 431900 and 437900 and 439800
BCL2-WT inhibition rate ([1]; 200 uM): 51% and 53% and 52% and 50%
raw luminescence reading ([1]; 200 uM): 434700 and 435900 and 419200 and 420100 and 446100 and 441200
raw viability signal, replicates (Jurkat cells; 1.5625 uM): 1714000 and 1704000 and 1684000 and 1696000 and 1705000 and 1721000
raw viability signal, replicates (Jurkat cells; 3.125 uM): 1448000 and 1401000 and 1343000 and 1377000 and 1375000 and 1402000
raw viability signal, replicates (Jurkat cells; 6.25 uM): 1130000 and 1065000 and 1037000 and 1061000 and 1063000 and 1084000
raw viability signal, replicates (Jurkat cells; 12.5 uM): 892300 and 842800 and 825800 and 842200 and 844000 and 860800
raw viability signal, replicates (Jurkat cells; 25 uM): 395000 and 492300 and 419200 and 469600 and 467400 and 468800
raw viability signal, replicates (Jurkat cells; 50 uM): 146000 and 160200 and 184200 and 190000 and 211800 and 228200
BCL2/G101V inhibiton rate ([2]; 3.125 uM): 8% and 4.44% and 2.43% and 0.638% and 1% and 2%
raw luminescence reading ([2]; 3.125 uM): 671600 and 698900 and 713600 and 726700 and 723800 and 716000
BCL2/G101V inhibiton rate ([2]; 6.25 uM): 13% and 10% and 7.56% and 8% and 9%
raw luminescence reading ([2]; 6.25 uM): 633100 and 639000 and 656800 and 676100 and 673100 and 668300
BCL2/G101V inhibiton rate ([2]; 12.5 uM): 26% and 24% and 22% and 23% and 21%
raw luminescence reading ([2]; 12.5 uM): 539700 and 558400 and 568300 and 571800 and 566400 and 579500
BCL2/G101V inhibiton rate ([2]; 25 uM): 24% and 23% and 22% and 21%
raw luminescence reading ([2]; 25 uM): 553400 and 560600 and 571800 and 579800 and 580700 and 578200
BCL2/G101V inhibiton rate ([2]; 50 uM): 39% and 38% and 36% and 35% and 34%
raw luminescence reading ([2]; 50 uM): 444500 and 453000 and 466400 and 464700 and 472100 and 479600
BCL2/G101V inhibiton rate ([2]; 100 uM): 46% and 45% and 42%
raw luminescence reading ([2]; 100 uM): 392800 and 395900 and 399700 and 397700 and 405800 and 422300
BCL2/G101V inhibiton rate ([2]; 200 uM): 48% and 49% and 45% and 44%
raw luminescence reading ([2]; 200 uM): 382600 and 370800 and 376000 and 400600 and 410900
raw viability signal, replicates (Daudi cells; 3.125 uM): 1593 and 1426 and 1310 and 1450 and 1626 and 1878
raw viability signal, replicates (Daudi cells; 6.25 uM): 1078 and 1072 and 931.3 and 1127 and 973.9 and 1033
raw viability signal, replicates (Daudi cells; 12.5 uM): 455.5 and 506.4 and 780.1 and 751.1 and 919.0 and 638.7
raw viability signal, replicates (Daudi cells; 25 uM): 431.3 and 645.0 and 475.8 and 693.5 and 515.7 and 555.5
raw viability signal, replicates (Daudi cells; 50 uM): 362.9 and 364.8 and 354.3 and 237.1 and 424.9 and 407.4
raw viability signal, replicates (Daudi cells; 100 uM): 330.6 and 360.1 and 410.7 and 529.9 and 565.2 and 706.1
IC50 (A549 cells (control); 48 h, CellTiter-Glo, n = 6, read-out: IC50 A549 control (original cells)): 74.1 ± 4.5 µM
raw luminescence reading (A549 cells (control); 3.125 uM): 680400 and 663400 and 563700 and 629300 and 626800 and 613100
raw luminescence reading (A549 cells (control); 6.25 uM): 624000 and 698000 and 600600 and 640100 and 681300 and 637500
raw luminescence reading (A549 cells (control); 12.5 uM): 490700 and 564100 and 465600 and 496900 and 544400 and 512100
control inhibiton rate (A549 cells (control); 25 uM): 29% and 19% and 33% and 30% and 20% and 28%
raw luminescence reading (A549 cells (control); 25 uM): 465600 and 531000 and 436600 and 460300 and 522200 and 471500
control inhibiton rate (A549 cells (control); 50 uM): 45% and 39% and 47% and 38% and 42%
raw luminescence reading (A549 cells (control); 50 uM): 357700 and 400600 and 345700 and 358400 and 403100 and 379300
control inhibiton rate (A549 cells (control); 100 uM): 58% and 52% and 57% and 50% and 55%
raw luminescence reading (A549 cells (control); 100 uM): 277600 and 315100 and 274100 and 282200 and 324600 and 296100
control inhibiton rate (A549 cells (control); 200 uM): 64% and 60% and 63% and 57% and 61%
raw luminescence reading (A549 cells (control); 200 uM): 232800 and 260700 and 234900 and 239800 and 281200 and 257400
